Columns and labels:
[1] = target: T1, HCV polymerase (NS5B570n-Con1) (Hepatitis C virus genotype 1b, UniProt Q9WMX2); test: HCV NS5B RNA polymerase activity assay; assay type: biochemical, HCV Con1 strain
T1 construct: contains a 21 amino acid deletion at the C-terminus relative to the full-length HCV polymerase; 6-histidine (N); made in house; host or cells: E. coli BL21(DE) pLysS, plasmid pET17b
Procedure: The enzymatic activity of HCV polymerase (NS5B570n-Con1) was measured as the incorporation of radiolabeled nucleotide monophosphates into acid insoluble RNA products. Unincorporated radiolabeled substrate was removed by filtration and scintillant was added to the washed and dried filter plate containing radiolabeled RNA product. The amount of RNA product generated by NS5B570-Con1 at the end of the reaction was directly proportional to the amount of light emitted by the scintillant.
The N-terminal 6-histidine tagged HCV polymerase, derived from HCV Con1 strain, genotype 1b (NS5B570n-Con1) contains a 21 amino acid deletion at the C-terminus relative to the full-length HCV polymerase and was purified from E. coli strain BL21(DE) pLysS. The construct, containing the coding sequence of HCV NS5B Con1 (GenBank accession number AJ242654) was inserted into the plasmid construct pET17b, downstream of a T7 promoter expression cassette and transformed into E. coli. A single colony was grown overnight as a starter culture and later used inoculate 10 L of LB media supplemented with 100 μg/mL ampicillin at 37° C. Protein expression was induced by the addition of 0.25 mM isopropyl-β-D-thiogalactopyranoside (IPTG) when optical density at […] of the culture was between 0.6 and 0.8 and cells were harvested after 16 to 18 h at 30° C. NS5B570n-Con1 was purified to homogeneity using a three-step protocol including subsequent column chromatography on Ni-NTA, SP-Sepharose HP and Superdex 75 resins.
Each 50 μl enzymatic reaction contained 20 nM RNA template derived from the complementary sequence of the Internal Ribosome Entry Site (cIRES), 20 nM NS5B570n-Con1 enzyme, 0.5 μCi of tritiated UTP (Perkin Elmer catalog no. TRK-412; specific activity: 30 to 60 Ci/mmol; stock solution concentration from 7.5×10^-5 M to 20.6×10^-6 M), 1 μM each ATP, CTP, and GTP, 40 mM Tris-HCl pH 8.0, 40 mM NaCl, 4 mM DTT (dithiothreitol), 4 mM MgCl2, and 5 μl of compound serial diluted in DMSO. Reaction mixtures were assembled in 96-well filter plates (cat #MADVN0B, Millipore Co.) and incubated for 2 h at 30° C. Reactions were stopped by addition of 10% final (v/v) trichloroacetic acid and incubated for 40 min at 4° C. Reactions were filtered, washed with 8 reaction volumes of 10% (v/v) trichloroacetic acetic acid, 4 reaction volumes of 70% (v/v) ethanol, air dried, and 25 μl of scintillant (Microscint 20, Perkin-Elmer) was added to each reaction well.
The amount of light emitted from the scintillant was converted to counts per minute (CPM) on a Topcount® plate reader (Perkin-Elmer, Energy Range: Low, Efficiency Mode: Normal, Count Time: 1 min, Background Subtract: none, Cross talk reduction: Off).
Data was analyzed in Excel® (Microsoft®) and ActivityBase® (Idbs®). The reaction in the absence of enzyme was used to determine the background signal, which was subtracted from the enzymatic reactions. Positive control reactions were performed in the absence of compound, from which the background corrected activity was set as 100% polymerase activity. All data was expressed as a percentage of the positive control. The compound concentration at which the enzyme-catalyzed rate of RNA synthesis was reduced by 50% (IC50) was calculated by fitting
[formula] equation (i) to the data. where “Y” corresponds to the relative enzyme activity (in %), “% Min” is the residual relative activity at saturating compound concentration, “% Max” is the relative maximum enzymatic activity, “X” corresponds to the compound concentration, and “S” is the Hill coefficient (or slope).

SMILES: COc1cc(C(=O)N(C)CC#N)c(-c2ccc[nH]c2=O)cc1C(C)(C)C [Compound I-66]
- IC50 [1]: 152 nM
- melting point: 211 to 212 °C

SMILES: COc1cc(CN(CCOC(C)=O)S(C)(=O)=O)c(-c2ccc[nH]c2=O)cc1C(C)(C)C [Compound I-30, 2-{[4-tert-Butyl-5-methoxy-2-(2-oxo-1,2-dihydro-pyridin-3-yl)-benzyl]-methanesulfonyl-amino}-ethyl acetate]
- IC50 [1]: 35 nM
- melting point: 207 to 208 °C

SMILES: COc1cc(C(=O)NCC#N)c(-c2ccc[nH]c2=O)cc1C(C)(C)C [Compound I-85]
- IC50 [1]: 23 nM

SMILES: COc1cc(Cn2c(=O)n(C)c3ccccc32)c(-c2ccc[nH]c2=O)cc1C(C)(C)C [Compound I-69, 1-[4-tert-Butyl-5-methoxy-2-(2-oxo-1,2-dihydro-pyridin-3-yl)-benzyl]-3-methyl-1,3-dihydro-benzoimidazol-2-one]
- IC50 [1]: 34 nM
- melting point: 140 to 142 °C

SMILES: COc1cc(CN2CCOC2=O)c(-c2ccc[nH]c2=O)cc1C(C)(C)C [Compound I-74]
- IC50 [1]: 56 nM

SMILES: COc1cc(CO)c(-c2ccc[nH]c2=O)cc1C(C)(C)C [Compound I-2, 3-(5-tert-Butyl-2-hydroxymethyl-4-methoxy-phenyl)-1H-pyridin-2-one]
- IC50 [1]: 1010 nM
- melting point: 215 to 216 °C

SMILES: COc1cc(CNS(=O)(=O)C(C)C)c(-c2ccc[nH]c2=O)cc1C(C)(C)C [Compound I-25]
- IC50 [1]: 183 nM
- melting point: 118 to 120 °C

SMILES: COc1cc(CN2C(=O)CC[C@@H]2CO)c(-c2ccc[nH]c2=O)cc1C(C)(C)C [Compound I-83]
- IC50 [1]: 146 nM
- melting point: 150 to 152 °C

SMILES: COc1cc(CC(=O)O)c(-c2ccc[nH]c2=O)cc1C(C)(C)C [Compound I-7, [4-tert-Butyl-5-methoxy-2-(2-oxo-1,2-dihydro-pyridin-3-yl)-phenyl]-acetic acid]
- IC50 [1]: 156 nM

SMILES: CCOC(=O)[C@H]1CCC(=O)N1Cc1cc(OC)c(C(C)(C)C)cc1-c1ccc[nH]c1=O [Compound I-70, (R)-1-[4-tert-Butyl-5-methoxy-2-(2-oxo-1,2-dihydro-pyridin-3-yl)-benzyl]-5-oxo-pyrrolidine-2-carboxylic acid ethyl ester]
- IC50 [1]: 70 nM
- melting point: 92 to 95 °C

SMILES: COc1cc(C(=O)N2CCC(F)(F)CC2)c(-c2ccc[nH]c2=O)cc1C(C)(C)C [Compound I-62]
- IC50 [1]: 955 nM
- melting point: 223 to 224 °C

SMILES: CCC1(CC)C(=O)C=CN(Cc2cc(OC)c(C(C)(C)C)cc2-c2ccc[nH]c2=O)C1=O [Compound I-39]
- IC50 [1]: 159 nM
- melting point: 282 to 284 °C

SMILES: COc1cc(C(=O)N2CCOCC2)c(-c2ccc[nH]c2=O)cc1C(C)(C)C [Compound I-40]
- IC50 [1]: 533 nM
- melting point: 208 to 210 °C

SMILES: COc1cc(CN(CCO)S(C)(=O)=O)c(-c2ccc[nH]c2=O)cc1C(C)(C)C [Compound I-35, N-[4-tert-butyl-5-methoxy-2-(2-oxo-1,2-dihydro-pyridin-3-yl)-benzyl]-N-(2-hydroxy-ethyl)-methanesulfonamide]
- IC50 [1]: 26 nM
- melting point: 234.7 to 236 °C

SMILES: COc1cc(CN2C(=O)OC[C@H]2C(C)C)c(-c2ccc[nH]c2=O)cc1C(C)(C)C [Compound I-75]
- IC50 [1]: 86 nM

SMILES: COc1cc(CN2C(=O)OC[C@@H]2C(C)C)c(-c2ccc[nH]c2=O)cc1C(C)(C)C [Compound I-76, 3-[5-tert-Butyl-2-((S)-4-isopropyl-2-oxo-oxazolidin-3-ylmethyl)-4-methoxy-phenyl]-1H-pyridin-2-one]
- IC50 [1]: 134 nM

SMILES: COc1cc(CNC(C)=O)c(-c2ccc[nH]c2=O)cc1C(C)(C)C [Compound I-12]
- IC50 [1]: 125 nM

SMILES: COc1cc(C(=O)N(C)Cc2ccncc2)c(-c2ccc[nH]c2=O)cc1C(C)(C)C [Compound I-58]
- IC50 [1]: 1140 nM
- melting point: 199 to 201 °C

SMILES: COc1cc(C(=O)N2CCC(Oc3ccccc3)CC2)c(-c2ccc[nH]c2=O)cc1C(C)(C)C [Compound I-79]
- IC50 [1]: 1320 nM

SMILES: COc1cc(CCO)c(-c2ccc[nH]c2=O)cc1C(C)(C)C [Compound I-5, 3-[5-tert-Butyl-2-(2-hydroxy-ethyl)-4-methoxy-phenyl]-1H-pyridin-2-one]
- IC50 [1]: 1580 nM
- melting point: 231.8 to 233.7 °C

SMILES: COc1cc(CNS(C)(=O)=O)c(-c2cc(F)c[nH]c2=O)cc1C(C)(C)C [Compound I-45]
- IC50 [1]: 687 nM

SMILES: COc1cc(CN(C)C(=O)c2ccccc2)c(-c2ccc[nH]c2=O)cc1C(C)(C)C [Compound I-22]
- IC50 [1]: 25 nM
- melting point: 236.2 to 238 °C

SMILES: COc1cc(CN(C(C)=O)c2ccccc2)c(-c2ccc[nH]c2=O)cc1C(C)(C)C [Compound I-89]
- IC50 [1]: 106 nM

SMILES: COC(=O)CCc1cc(OC)c(C(C)(C)C)cc1-c1ccc[nH]c1=O [Compound I-3, 3-[4-tert-Butyl-5-methoxy-2-(2-oxo-1,2-dihydro-pyridin-3-yl)-phenyl]-propionic acid methyl ester]
- IC50 [1]: 954 nM

SMILES: COc1cc(CN(C)C(C)=O)c(-c2ccc[nH]c2=O)cc1C(C)(C)C [Compound I-14]
- IC50 [1]: 151 nM

SMILES: COc1cc(C(=O)N2CCOC(CO)C2)c(-c2ccc[nH]c2=O)cc1C(C)(C)C (centres unmarked) [Compound I-78]
- IC50 [1]: 1410 nM

SMILES: COc1cc(CCC(=O)O)c(-c2ccc[nH]c2=O)cc1C(C)(C)C [Compound I-1, 3-[4-tert-Butyl-5-methoxy-2-(2-oxo-1,2-dihydro-pyridin-3-yl)-phenyl]-propionic acid]
- IC50 [1]: 273 nM

SMILES: COc1cc(CC(N)=O)c(-c2ccc[nH]c2=O)cc1C(C)(C)C [Compound I-11, 2-[4-tert-Butyl-5-methoxy-2-(2-oxo-1,2-dihydro-pyridin-3-yl)-phenyl]-acetamide]
- IC50 [1]: 437 nM

SMILES: COc1cc(CNC(=O)c2cccnc2)c(-c2ccc[nH]c2=O)cc1C(C)(C)C [Compound I-49]
- IC50 [1]: 26 nM

SMILES: COc1cc(CN2CCCC2=O)c(-c2ccc[nH]c2=O)cc1C(C)(C)C [Compound I-18, 3-[5-tert-Butyl-4-methoxy-2-(2-oxo-pyrrolidin-1-ylmethyl)-phenyl]-1H-pyridin-2-one]
- IC50 [1]: 121 nM

SMILES: CNC(=O)Cc1cc(OC)c(C(C)(C)C)cc1-c1ccc[nH]c1=O [Compound I-10, 2-[4-tert-Butyl-5-methoxy-2-(2-oxo-1,2-dihydro-pyridin-3-yl)-phenyl]-N-methyl-acetamide]
- IC50 [1]: 700 nM

SMILES: COc1cc(CNS(C)(=O)=O)c(-c2ccc[nH]c2=O)cc1C(C)(C)C [Compound I-13, N-[4-tert-Butyl-5-methoxy-2-(2-oxo-1,2-dihydro-pyridin-3-yl)-benzyl]-methane sulfonamide]
- IC50 [1]: 64 nM

SMILES: COc1cc(CNS(N)(=O)=O)c(-c2ccc[nH]c2=O)cc1C(C)(C)C [Compound I-50, N-[4-tert-Butyl-5-methoxy-2-(2-oxo-1,2-dihydro-pyridin-3-yl)-benzyl]-sulfamide]
- IC50 [1]: 49 nM

SMILES: COc1cc(CNC(=O)c2ccc(N(S(C)(=O)=O)S(C)(=O)=O)cc2)c(-c2ccc[nH]c2=O)cc1C(C)(C)C [Compound I-44]
- IC50 [1]: 774 nM

SMILES: CNC(=O)c1cc(OC)c(C(C)(C)C)cc1-c1ccc[nH]c1=O [Compound I-9, 4-tert-Butyl-5-methoxy-N-methyl-2-(2-oxo-1,2-dihydro-pyridin-3-yl)-benzamide]
- IC50 [1]: 442 nM

SMILES: COc1cc(CS(C)(=O)=O)c(-c2ccc[nH]c2=O)cc1C(C)(C)C [Compound I-15, 3-(5-tert-Butyl-2-methanesulfonylmethyl-4-methoxy-phenyl)-1H-pyridin-2-one]
- IC50 [1]: 746 nM

Source: patent US8232271B2 (priority 2008, dated 2012)
